pEC50: −log10 of the molar value.
Key:
h-TGR5 = target: T1, h-TGR5 (Homo sapiens, UniProt Q8TDU6); assay: TGR5 cAMP Assay using Cisbio cAMP Dynamic 2 htrf assay kit; type: cell-based; settings: hTGR5CRE-luc HEK 293 cells
T1 sequence (Q8TDU6 1-330): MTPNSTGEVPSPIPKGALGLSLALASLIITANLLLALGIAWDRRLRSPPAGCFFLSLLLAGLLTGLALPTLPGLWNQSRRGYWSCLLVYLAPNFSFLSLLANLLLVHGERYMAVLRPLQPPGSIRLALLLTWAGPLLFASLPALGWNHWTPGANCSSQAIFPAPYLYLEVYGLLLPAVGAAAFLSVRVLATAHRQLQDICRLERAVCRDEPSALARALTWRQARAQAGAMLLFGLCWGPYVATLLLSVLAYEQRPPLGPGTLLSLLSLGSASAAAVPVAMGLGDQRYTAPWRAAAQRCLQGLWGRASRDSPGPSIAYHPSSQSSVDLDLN

human TGR5 (h-TGR5) = target: T2, human TGR5 (h-TGR5) (Homo sapiens, UniProt Q8TDU6); assay: TGR5/CRE-Luciferase Assay; type: cell-based; settings: HEK 293 hTGR5/CRE-Luc cells, 6 hours incubation, read-out: CRE-Luc Agonist (EC50)
T2 sequence (Q8TDU6 1-330): T1 sequence (Q8TDU6 1-330)
Outline: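 HEK 293 CRE-Luciferase cells stably expressing the receptor, plated in DMEM 18-20 h before assay, then exposed to serially diluted compounds (DMEM with 5% DMSO) for 6 h. Luciferase read-out after lysis; EC50 from dose-response.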

Row | pEC50 (h-TGR5) | pEC50 (human TGR5 (h-TGR5)) | SMILES
1 | > 7.00 | > 7.00 | COc1cc(C(C)(C)c2cnc(SCc3c(F)cc(C(=O)N[C@H]4CCC[N+](C)(C)C4)cc3Cl)n2-c2ccc(F)cc2)ccc1Cl [Example 2d, (3S)-3-({[3-chloro-4-({[5-{1-[4-chloro-3-(methyloxy)phenyl]-1-methylethyl}-1-(4-fluorophenyl)-1H-imidazol-2-yl]thio}methyl)-5-fluorophenyl]carbonyl}amino)-1,1-dimethylpiperidinium]
2 | > 7.00 | > 7.00 | COc1cc(C(C)(C)c2cnc(SCc3c(F)cc(C(=O)N[C@H]4CC[N+](C)(C)C4)cc3Cl)n2-c2ccc(F)cc2)ccc1Cl [Example 2f, (3S)-3-({[3-chloro-4-({[5-{1-[4-chloro-3-(methyloxy)phenyl]-1-methylethyl}-1-(4-fluorophenyl)-1H-imidazol-2-yl]thio}methyl)-5-fluorophenyl]carbonyl}amino)-1,1-dimethylpyrrolidinium]
3 | > 7.00 | > 7.00 | COc1cc(C(C)(C)c2cnc(SCc3c(F)cc(C(=O)N[C@@H]4CCC[N+](C)(C)C4)cc3Cl)n2-c2ccc(F)cc2)ccc1Cl [Example 2g, (3R)-3-({[3-chloro-4-({[5-{1-[4-chloro-3-(methyloxy)phenyl]-1-methylethyl}-1-(4-fluorophenyl)-1H-imidazol-2-yl]thio}methyl)-5-fluorophenyl]carbonyl}amino)-1,1-dimethylpiperidinium]
4 | > 7.00 | > 7.00 | COc1cc(C(C)(C)c2cnc(SCc3c(F)cc(C(=O)N[C@@H]4CC[N+](C)(C)C4)cc3Cl)n2-c2ccc(F)cc2)ccc1Cl [Example 2h, (3R)-3-({[3-chloro-4-({[5-{1-[4-chloro-3-(methyloxy)phenyl]-1-methylethyl}-1-(4-fluorophenyl)-1H-imidazol-2-yl]thio}methyl)-5-fluorophenyl]carbonyl}amino)-1,1-dimethylpyrrolidinium]
5 | > 7.00 | > 7.00 | COc1cc(-n2c(C(C)(C)c3ccc(Cl)c(Cl)c3)cnc2SCc2c(F)cc(C(=O)N[C@H]3CCC[N+](C)(C)C3)cc2Cl)ccc1F [Example 2o, (3S)-3-[({3-chloro-4-[({5-[1-(3,4-dichlorophenyl)-1-methylethyl]-1-[4-fluoro-3-(methyloxy)phenyl]-1H-imidazol-2-yl}thio)methyl]-5-fluorophenyl}carbonyl)amino]-1,1-dimethylpiperidinium]
6 | > 7.00 | > 7.00 | COc1cc(C(C)(C)c2cnc(SCc3c(F)cc(C(=O)N[C@H]4CCC[N+](C)(C)C4)cc3Cl)n2-c2ccc(F)cc2)ccc1F [Example 2p, (3S)-3-({[3-chloro-5-fluoro-4-({[5-{1-[4-fluoro-3-(methyloxy)phenyl]-1-methylethyl}-1-(4-fluorophenyl)-1H-imidazol-2-yl]thio}methyl)phenyl]carbonyl}amino)-1,1-dimethylpiperidinium]
7 | > 7.00 | > 7.00 | COc1cc(C(C)(C)c2cnc(SCc3c(F)cc(C(=O)N[C@H]4CC[N+](C)(C)C4)cc3Cl)n2-c2ccc(F)cc2)ccc1F [Example 2q, (3S)-3-({[3-chloro-5-fluoro-4-({[5-{1-[4-fluoro-3-(methyloxy)phenyl]-1-methylethyl}-1-(4-fluorophenyl)-1H-imidazol-2-yl]thio}methyl)phenyl]carbonyl}amino)-1,1-dimethylpyrrolidinium]
8 | > 7.00 | > 7.00 | COc1cc(-n2c(C(C)(C)c3ccc(Cl)c(Cl)c3)cnc2SCc2c(F)cc(C(=O)N[C@H]3CC[N+](C)(C)C3)cc2Cl)ccc1F [Example 2r, (3S)-3-[({3-chloro-4-[({5-[1-(3,4-dichlorophenyl)-1-methylethyl]-1-[4-fluoro-3-(methyloxy)phenyl]-1H-imidazol-2-yl}thio)methyl]-5-fluorophenyl}carbonyl)amino]-1,1-dimethylpyrrolidinium]
9 | > 7.00 | > 7.00 | COc1cc(C(C)(C)c2cnc(SCc3c(F)cc(C(=O)NC4CC[N+](C)(CC(=O)O)CC4)cc3Cl)n2-c2ccc(F)cc2)ccc1Cl (stereo not shown) [Example 3, 1-(Carboxymethyl)-4-(3-chloro-4-((5-(2-(4-chloro-3-methoxyphenyl)propan-2-yl)-1-(4-fluorophenyl)-1H-imidazol-2-ylthio)methyl)-5-fluorobenzamido)-1-methyl-piperidinium 2,2,2-trifluoroacetate]

Continued, compound first:

Row | SMILES | pEC50 (h-TGR5) | pEC50 (human TGR5 (h-TGR5))
10 | COc1cc(C(C)(C)c2cnc(SCc3c(F)cc(C(=O)N[C@H]4CC[N+](C)(Cc5ccc(F)cc5)C4)cc3Cl)n2-c2ccc(F)cc2)ccc1Cl (stereo partly drawn) [Example 2e, (3S)-3-({[3-chloro-4-({[5-{1-[4-chloro-3-(methyloxy)phenyl]-1-methylethyl}-1-(4-fluorophenyl)-1H-imidazol-2-yl]thio}methyl)-5-fluorophenyl]carbonyl}amino)-1-[(4-fluorophenyl)methyl]-1-methylpyrrolidinium] | > 7.00 | > 7.00
11 | COc1cc(C(C)(C)c2cnc(SCc3c(F)cc(C(=O)NCC[N+]4(C)CC[N+](C)(C)CC4)cc3Cl)n2-c2ccc(F)cc2)ccc1Cl [Example 2i, 1-[2-({[3-chloro-4-({[5-{1-[4-chloro-3-(methyloxy)phenyl]-1-methylethyl}-1-(4-fluorophenyl)-1H-imidazol-2-yl]thio}methyl)-5-fluorophenyl]carbonyl}amino)ethyl]-1,4,4-trimethylpiperazinediium] | 6.00 to 7.00 | 6.00 to 7.00
12 | COc1cc(C(C)(C)c2cnc(SCc3c(F)cc(C(=O)NCC[N+]4(C)CCOCC4)cc3Cl)n2-c2ccc(F)cc2)ccc1Cl [Example 2j, 4-[2-({[3-chloro-4-({[5-{1-[4-chloro-3-(methyloxy)phenyl]-1-methylethyl}-1-(4-fluorophenyl)-1H-imidazol-2-yl]thio}methyl)-5-fluorophenyl]carbonyl}amino)ethyl]-4-methylmorpholin-4-ium] | 5.00 to 6.00 | 5.00 to 6.00
13 | COc1cc(-n2c(C(C)(C)c3ccc4onc(N)c4c3)cnc2SCc2c(F)cc(C(=O)N[C@H]3CC[N+](C)(C)C3)cc2F)ccc1F [Example 2k, (3S)-3-[({4-[({5-[1-(3-amino-1,2-benzisoxazol-5-yl)-1-methylethyl]-1-[4-fluoro-3-(methyloxy)phenyl]-1H-imidazol-2-yl}thio)methyl]-3,5-difluorophenyl}carbonyl)amino]-1,1-dimethylpyrrolidinium] | > 7.00 | > 7.00
14 | COc1cc(C(C)(C)c2cnc(SCc3c(F)cc(C(=O)N4CCC([N+](C)(C)C)CC4)cc3Cl)n2-c2ccc(F)cc2)ccc1Cl [Example 2l, 1-{[3-chloro-4-({[5-{1-[4-chloro-3-(methyloxy)phenyl]-1-methylethyl}-1-(4-fluorophenyl)-1H-imidazol-2-yl]thio}methyl)-5-fluorophenyl]carbonyl}-N,N,N-trimethylpiperidin-4-aminium] | > 7.00 | > 7.00
15 | COc1cc(C(C)(C)c2cnc(SCc3c(F)cc(C(=O)NCC4(O)CC[N+](C)(C)CC4)cc3Cl)n2-c2ccc(F)cc2)ccc1Cl [Example 2m, 4-[({[3-chloro-4-({[5-{1-[4-chloro-3-(methyloxy)phenyl]-1-methylethyl}-1-(4-fluorophenyl)-1H-imidazol-2-yl]thio}methyl)-5-fluorophenyl]carbonyl}amino)methyl]-4-hydroxy-1,1-dimethylpiperidinium] | > 7.00 | > 7.00
16 | COc1cc(-n2c(C(C)(C)c3ccc(Cl)c(Cl)c3)cnc2SCc2c(F)cc(C(=O)NCC[N+](C)(C)C)cc2Cl)ccc1F [Example 2n, 2-[({3-chloro-4-[({5-[1-(3,4-dichlorophenyl)-1-methylethyl]-1-[4-fluoro-3-(methyloxy)phenyl]-1H-imidazol-2-yl}thio)methyl]-5-fluorophenyl}carbonyl)amino]-N,N,N-trimethylethanaminium] | > 7.00 | > 7.00
17 | COc1cc(C(C)(C)c2cnc(SCc3c(F)cc(C(=O)NCC[N+](C)(C)CCCS(=O)(=O)[O-])cc3Cl)n2-c2ccc(F)cc2)ccc1Cl [Example 4, 3-((2-(3-Chloro-4-((5-(2-(4-chloro-3-methoxyphenyl)propan-2-yl)-1-(4-fluorophenyl)-1H-imidazol-2-ylthio)methyl)-5-fluorobenzamido)ethyl)dimethylammonio)-propane-1-sulfonate] | > 7.00 | > 7.00
18 | COc1cc(C(C)(C)c2cnc(SCc3c(F)cc(NC(=O)NCC[N+](C)(C)C)cc3Cl)n2-c2ccc(F)cc2)ccc1Cl [Example 5] | > 7.00 | > 7.00
19 | COc1cc(C(C)(C)c2cnc(SCc3c(F)cc(S(=O)(=O)NCCC[N+](C)(C)C)cc3F)n2-c2ccc(F)cc2)ccc1Cl [Example 6, 3-(4-((5-(2-(4-Chloro-3-methoxyphenyl)propan-2-yl)—(4-fluorophenyl)-1H-imidazol-2-ylthio)methyl)-3,5-difluorophenylsulfonamido)-N,N,N-trimethylpropan-1-aminium 2,2,2-trifluoroacetate] | > 7.00 | > 7.00
20 | COc1cc(C(C)(C)c2cnc(SCc3c(F)cc(S(=O)(=O)NCCC[N+](C)(C)C)cc3Cl)n2-c2ccc(F)cc2)ccc1F [Example 6a, 3-({[3-chloro-5-fluoro-4-({[5-{1-[4-fluoro-3-(methyloxy)phenyl]-1-methylethyl}-1-(4-fluorophenyl)-1H-imidazol-2-yl]thio}methyl)phenyl]sulfonyl}amino)-N,N,N-trimethylpropan-1-aminium] | > 7.00 | > 7.00

Reference: US8846739B2, “TGR5 agonists” (Exelixis Patent Company LLC, priority 2009, dated 2014)
